The test system of assay [1] is TRAF3. Nature of the assay: TRAF3 protein (western blot) and mRNA (real time RT-PCR) levels in PBMCs from ESRD patients treated or not with paricalcitol. In kind it is in vivo, human. The note with it: PBMCs of paricalcitol-treated ESRD patients on hemodialysis. As for the experimental part: Intracellular protein and mRNA levels were measured in PBMCs from ESRD patients on hemodialysis. Inclusion criteria were as follows: age >45 years; male sex; informed consent; and absence of active inflammatory, infectious, or malignant diseases at the initiation or during the study. This study was approved by the IIS-Fundación Jiménez Diaz Ethics Committee. Patients were enrolled after providing written informed consent. PBMCs were separated from whole blood samples (30 ml into EDTA tubes) by a density gradient centrifugation method using Ficoll density gradient centrifugation. In total, 50x10^6 of PBMCs were obtained from 30 ml of whole blood and 6x10^6 PBMCs were used to isolate protein, RNA and nuclear/cytosolic protein levels using the NE-PER Reagent (Pierce) following the manufacturer's instructions.
(§1) For western blot, cell (25 µg/lane) and kidney (100-150 µg/lane) protein extracts were separated on 6%-12% polyacrylamide-SDS gels under reducing conditions. […] Autoradiographs were scanned using the Gel Doc™ EZ imager and analyzed with the Image Lab 3.0 software (BioRad).
(§2) Total RNA was isolated from cells and mouse kidney samples with Trizol (Invitrogen). […] The mRNA copy numbers were calculated for each sample by the instrument software using Ct value. Results are expressed in copy numbers, calculated relative to unstimulated cells or control mice, after normalization against 18S.
A general note: A western blot detects proteins with antibodies after separation by electrophoresis.

The subject of assay [2] is TRAF3. As to the kind of experiment: Renal TRAF3 (western blot), TWEAK-mediated renal inflammation in mice. The format is in vivo. As to conditions: TWEAK 0.5 µg model; paricalcitol 750 ng/kg/day i.p.; sacrificed 24 hours after TWEAK. As for the experimental part: (§3) All animal procedures were performed according to the guidelines of animal research in the European Community and with prior approval by the Ethics Committee of the Health Research of the IIS-Fundacion Jiménez Díaz. For in vivo studies, mice received a daily intraperitoneal injection of the VDRA Paricalcitol starting 48 hours prior to induction of kidney damage.
At the time of sacrifice, animals were anesthetized with 5 mg/kg xylazine (Rompun, Bayer AG) and 35 mg/kg ketamine (Ketolar, Pfizer) and the kidneys perfused in situ with cold saline before removal. Then, kidney portions were fixed in formalin buffer for immunohistochemistry studies or immediately frozen in liquid nitrogen for gene and protein studies.
TWEAK administration: C57BL/6 female mice (9-12 weeks, weight 20 g, 7-8 animals per group), received a single intraperitoneal injection of 0.5 µg TWEAK dissolved in saline and were sacrificed 24 hours later, as previously described (Sanz et al. 2008). Controls were injected with the saline vehicle (n=8-10 mice per group). TWEAK endotoxin level were <0.1 ng/mg, confirmed by MALDI-TOF. […]
as §1

Assay [3] has as its system renal inflammation in experimental Unilateral Ureteral Obstruction (UUO). As to the kind of experiment: Renal inflammation in unilateral ureteral obstruction (UUO) in mice. The format is in vivo, C57BL/6 mice. As to conditions: obstructed kidneys (UUO), paricalcitol 750 ng/kg/day. As to the method:
as §3
At the time of sacrifice, animals were anesthetized with 5 mg/kg xylazine (Rompun, Bayer AG) and 35 mg/kg ketamine (Ketolar, Pfizer) and the kidneys perfused in situ with cold saline before removal. […]
Paraffin-embedded kidney sections (3 µm) were stained using conventional methods. […] For each sample (processed by duplicate in a blinded manner), the average value was obtained from the analysis of 4 fields (20X objective) as density/mm2 or percentage stained area vs total analyzed area. Data are expressed as fold increase over control mice, as mean ± SEM of 8-10 animals per group. […]
as §2

These results are taken from patent EP3748362A1, “IN VITRO METHOD FOR DETECTING RENAL DISEASE” (Fundacion Instituto De Investigacion Sanitaria Fundacion …, priority 2019, dated 2020).

As for `C[C@H](/C=C/[C@H](C)C(C)(C)O)[C@H]1CC[C@H]2/C(=C/C=C3C[C@@H](O)C[C@H](O)C3)CCC[C@]12C` [paricalcitol], the “TRAF3 mRNA levels” value with TRAF3 [1] (real time RT-PCR) is “no changes”. Moreover, the TRAF3 protein levels entry with TRAF3 [1] (western blot, vs healthy controls) is recorded as “restored to values in the range of healthy controls”. The “renal TRAF3 protein levels” value in the assay with TRAF3 [2] is listed as “restored renal TRAF3 protein levels to values of control mice”. For the same compound, in assay [3] (5 days after UUO), the inflammatory cell infiltration entry is given as “prevented”. For the same compound, the “increased expression of proinflammatory factors, such as CCL2, CCL5, IL6” value in assay [3] (real time PCR) is “prevented”.
